Assay results reported in PubChem BioAssay AID2060485 (Molecular Pharmacology Branch, DTP, NCI, 2025).

Test system: A375 multi-cell spheroids with HUVEC/MSC, viability
Test: Anticancer human tumor A375 cell line growth inhibition [GQUAD];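 further: spheroids exposed to compounds for seven days before readout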
Settings: for IC50: curve of first compound; for viability, T/C: stronger effect = lower value; active means viability on the fitted dose curve at most 10% of control; inactive means the rest
Procedure, shortened: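 Multi-cell-type spheroids of tumor cells with HUVEC and mesenchymal stem cells, treated with drug combinations. Concentrations descend in half-log steps from near clinical Cmax, or from 10 microM where Cmax is unknown; viability read-out.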

[1] = second compound 0.0316 µM, first compound 0.0316 µM
[2] = second compound 0.0316 µM, first compound 0.1 µM
[3] = second compound 0.0316 µM, first compound 0.316 µM
[4] = second compound 0.0316 µM, first compound 1 µM
[5] = second compound 0.0316 µM, first compound 3.16 µM
[6] = second compound 0.0316 µM, first compound 10 µM
[7] = second compound 0.1 µM, first compound 0.0316 µM
[8] = second compound 0.1 µM, first compound 0.1 µM
[9] = second compound 0.1 µM, first compound 0.316 µM
[10] = second compound 0.1 µM, first compound 1 µM
[11] = second compound 0.1 µM, first compound 3.16 µM
[12] = second compound 0.1 µM, first compound 10 µM
[13] = second compound 0.316 µM, first compound 0.0316 µM
[14] = second compound 0.316 µM, first compound 0.1 µM
[15] = second compound 0.316 µM, first compound 0.316 µM
[16] = second compound 0.316 µM, first compound 1 µM
[17] = second compound 0.316 µM, first compound 3.16 µM
[18] = second compound 0.316 µM, first compound 10 µM
[19] = second compound 1 µM, first compound 0.0316 µM
[20] = second compound 1 µM, first compound 0.1 µM
[21] = second compound 1 µM, first compound 0.316 µM
[22] = second compound 1 µM, first compound 1 µM
[23] = second compound 1 µM, first compound 3.16 µM
[24] = second compound 1 µM, first compound 10 µM
[25] = second compound 3.16 µM, first compound 0.0316 µM
[26] = second compound 3.16 µM, first compound 0.1 µM
[27] = second compound 3.16 µM, first compound 0.316 µM
[28] = second compound 3.16 µM, first compound 1 µM
[29] = second compound 3.16 µM, first compound 3.16 µM
[30] = second compound 3.16 µM, first compound 10 µM
[31] = second compound 10 µM, first compound 0.0316 µM
[32] = second compound 10 µM, first compound 0.1 µM
[33] = second compound 10 µM, first compound 0.316 µM
[34] = second compound 10 µM, first compound 1 µM
[35] = second compound 10 µM, first compound 3.16 µM
[36] = second compound 10 µM, first compound 10 µM

COc1ccc([C@@H](O)c2cc(-c3ncnc4cc(N5CCOCC5)ccc34)c(F)cc2Cl)nn1 + Cc1[nH]c2ccc(F)cc2c1-c1nc2c3cccnc3c3ncccc3c2[nH]1
> 10000 nM: IC50 (second compound 0.0316 µM) | IC50 (second compound 0.1 µM) | IC50 (second compound 0.316 µM) | IC50 (second compound 1 µM) | IC50 (second compound 3.16 µM) | IC50 (second compound 10 µM)
inactive: viability, T/C [1] 105% | viability, T/C [2] 108% | viability, T/C [3] 103% | viability, T/C [4] 126% | viability, T/C [5] 100% | viability, T/C [6] 77.5% | viability, T/C [7] 106% | viability, T/C [8] 102% | viability, T/C [9] 105% | viability, T/C [10] 112% | viability, T/C [11] 96.6% | viability, T/C [12] 85.6% | viability, T/C [13] 103% | viability, T/C [14] 112% | viability, T/C [15] 105% | viability, T/C [16] 110% | viability, T/C [17] 95.3% | viability, T/C [18] 87.9% | viability, T/C [19] 106% | viability, T/C [20] 112% | viability, T/C [21] 109% | viability, T/C [22] 113% | viability, T/C [23] 98.2% | viability, T/C [24] 68.1% | viability, T/C [25] 101% | viability, T/C [26] 96% | viability, T/C [27] 101% | viability, T/C [28] 79.1% | viability, T/C [29] 77.2% | viability, T/C [30] 50.4% | viability, T/C [31] 113% | viability, T/C [32] 107% | viability, T/C [33] 122% | viability, T/C [34] 97.2% | viability, T/C [35] 78.2% | viability, T/C [36] 56.3%

CC1COCCN1c1cc(C2(O)CC3CCC(C2)O3)c2cnn(-c3ccn[nH]3)c2n1 (stereo not given) + Cc1cnc(CNC(=O)c2c(=O)c3ccc(N4CCCN(C)CC4)nc3n3c2sc2ccccc23)cn1
< 31.6 nM: IC50 (second compound 0.316 µM) | IC50 (second compound 1 µM) | IC50 (second compound 3.16 µM) | IC50 (second compound 10 µM)
57.5 nM: IC50 (second compound 0.1 µM)
inactive: viability, T/C [1] 86.1% | viability, T/C [2] 51.7% | viability, T/C [3] 38.3% | viability, T/C [4] 15.7% | viability, T/C [5] 10.2% | viability, T/C [7] 57% | viability, T/C [8] 42.5% | viability, T/C [9] 31.2% | viability, T/C [10] 15.2% | viability, T/C [11] 11% | viability, T/C [13] 38% | viability, T/C [14] 29.7% | viability, T/C [15] 28.9% | viability, T/C [16] 19.1% | viability, T/C [17] 10.3% | viability, T/C [19] 40.9% | viability, T/C [20] 32% | viability, T/C [21] 27.3% | viability, T/C [22] 14.4% | viability, T/C [23] 10.5% | viability, T/C [25] 31.9% | viability, T/C [26] 27.4% | viability, T/C [27] 23.4% | viability, T/C [28] 14.3% | viability, T/C [29] 10.1% | viability, T/C [31] 24.7% | viability, T/C [32] 22.5% | viability, T/C [33] 21.8% | viability, T/C [34] 13.7%
active: viability, T/C [6] 7.77% | viability, T/C [12] 7.11% | viability, T/C [18] 7.26% | viability, T/C [24] 7.81% | viability, T/C [30] 5.41% | viability, T/C [35] 9.6% | viability, T/C [36] 4.53%
127 nM: IC50 (second compound 0.0316 µM)

COc1cc(C2c3cc4c(cc3C(OC3OC5COC(C)OC5C(O)C3O)C3COC(=O)C23)OCO4)cc(OC)c1O (stereo not given) + CN(C)c1ccc(Nc2c3ccc(NC(=O)CCN4CCCC4)cc3nc3cc(NC(=O)CCN4CCCC4)ccc23)cc1
inactive: viability, T/C [1] 99% | viability, T/C [2] 105% | viability, T/C [3] 75.3% | viability, T/C [4] 52.5% | viability, T/C [5] 27.5% | viability, T/C [6] 19% | viability, T/C [7] 109% | viability, T/C [8] 103% | viability, T/C [9] 71.6% | viability, T/C [10] 50.2% | viability, T/C [11] 31.1% | viability, T/C [12] 18% | viability, T/C [13] 107% | viability, T/C [14] 107% | viability, T/C [15] 74.2% | viability, T/C [16] 55.1% | viability, T/C [17] 33% | viability, T/C [18] 18.2% | viability, T/C [19] 117% | viability, T/C [20] 105% | viability, T/C [21] 86.3% | viability, T/C [22] 58.6% | viability, T/C [23] 30.9% | viability, T/C [24] 18.1% | viability, T/C [25] 103% | viability, T/C [26] 103% | viability, T/C [27] 84.5% | viability, T/C [28] 60.1% | viability, T/C [29] 35.2% | viability, T/C [30] 18.8% | viability, T/C [31] 105% | viability, T/C [32] 99.9% | viability, T/C [33] 80.6% | viability, T/C [34] 56.9% | viability, T/C [35] 35.9% | viability, T/C [36] 20.1%
1460 nM: IC50 (second compound 10 µM)
1020 nM: IC50 (second compound 0.0316 µM)
1580 nM: IC50 (second compound 3.16 µM)
1410 nM: IC50 (second compound 1 µM)
1200 nM: IC50 (second compound 0.316 µM)
966 nM: IC50 (second compound 0.1 µM)

C=CCn1c(=O)c2cnc(Nc3ccc(N4CCN(C)CC4)cc3)nc2n1-c1cccc(C(C)(C)O)n1 + CN(C)c1ccc(Nc2c3ccc(NC(=O)CCN4CCCC4)cc3nc3cc(NC(=O)CCN4CCCC4)ccc23)cc1
1160 nM: IC50 (second compound 0.0316 µM)
active: viability, T/C [6] 7.71% | viability, T/C [18] 6.94% | viability, T/C [24] 6.9% | viability, T/C [30] 8.34%
1230 nM: IC50 (second compound 0.1 µM)
1310 nM: IC50 (second compound 0.316 µM)
1400 nM: IC50 (second compound 10 µM)
1380 nM: IC50 (second compound 1 µM)
inactive: viability, T/C [1] 99.7% | viability, T/C [2] 105% | viability, T/C [3] 96.4% | viability, T/C [4] 55.9% | viability, T/C [5] 12.3% | viability, T/C [7] 98.4% | viability, T/C [8] 100% | viability, T/C [9] 104% | viability, T/C [10] 58% | viability, T/C [11] 15.1% | viability, T/C [12] 7.18% | viability, T/C [13] 106% | viability, T/C [14] 98.7% | viability, T/C [15] 99.9% | viability, T/C [16] 60.7% | viability, T/C [17] 14.2% | viability, T/C [19] 102% | viability, T/C [20] 102% | viability, T/C [21] 107% | viability, T/C [22] 63.8% | viability, T/C [23] 15.3% | viability, T/C [25] 108% | viability, T/C [26] 96.1% | viability, T/C [27] 106% | viability, T/C [28] 66% | viability, T/C [29] 15.6% | viability, T/C [31] 103% | viability, T/C [32] 93.3% | viability, T/C [33] 105% | viability, T/C [34] 63.5% | viability, T/C [35] 17.4% | viability, T/C [36] 8.32%
1440 nM: IC50 (second compound 3.16 µM)

CC1COCCN1c1cc(C2(S(C)(=N)=O)CC2)nc(-c2ccnc3[nH]ccc23)n1 (stereo not given) + CN(C)c1ccc(Nc2c3ccc(NC(=O)CCN4CCCC4)cc3nc3cc(NC(=O)CCN4CCCC4)ccc23)cc1
6090 nM: IC50 (second compound 0.0316 µM)
7300 nM: IC50 (second compound 1 µM)
6260 nM: IC50 (second compound 0.316 µM)
5860 nM: IC50 (second compound 0.1 µM)
inactive: viability, T/C [1] 102% | viability, T/C [2] 105% | viability, T/C [3] 102% | viability, T/C [4] 108% | viability, T/C [5] 68.5% | viability, T/C [6] 36% | viability, T/C [7] 108% | viability, T/C [8] 104% | viability, T/C [9] 106% | viability, T/C [10] 102% | viability, T/C [11] 67.8% | viability, T/C [12] 34.5% | viability, T/C [13] 105% | viability, T/C [14] 101% | viability, T/C [15] 107% | viability, T/C [16] 107% | viability, T/C [17] 71.9% | viability, T/C [18] 35% | viability, T/C [19] 106% | viability, T/C [20] 95.7% | viability, T/C [21] 114% | viability, T/C [22] 108% | viability, T/C [23] 68% | viability, T/C [24] 43.2% | viability, T/C [25] 118% | viability, T/C [26] 95.8% | viability, T/C [27] 97.2% | viability, T/C [28] 108% | viability, T/C [29] 78.3% | viability, T/C [30] 40.3% | viability, T/C [31] 95.5% | viability, T/C [32] 98.3% | viability, T/C [33] 101% | viability, T/C [34] 96.8% | viability, T/C [35] 64.8% | viability, T/C [36] 40.6%
7460 nM: IC50 (second compound 3.16 µM)
6400 nM: IC50 (second compound 10 µM)
